{"source": "paper PMC5218480", "about": "(PLoS ONE, 2017)", "tested_on": "MV-4-11 cells", "test": "Gene expression microarray analysis (Affymetrix PrimeView) and GSEA", "type": "cell-based, human", "design": "RFU PODN (11730768_x_at) / Fold change /veh PODN (11730768_x_at) / RFU LINC00158 (11744669_a_at) / Fold change /veh LINC00158 (11744669_a_at) / RFU DUSP10 (11751237_a_at) / Fold change /veh DUSP10 (11751237_a_at) / RFU ID3 (11757404_x_at) / Fold change /veh ID3 (11757404_x_at) / RFU PLEKHG5 (11737974_s_at) / Fold change /veh PLEKHG5 (11737974_s_at) / RFU LRRC4B (11730491_at) / Fold change /veh LRRC4B (11730491_at) / RFU GIMAP4 (11747438_a_at) / Fold change /veh GIMAP4 (11747438_a_at) / RFU KRT8 (11758183_x_at) / Fold change /veh KRT8 (11758183_x_at) / RFU CNN1 (11734310_a_at) / Fold change /veh CNN1 (11734310_a_at) / RFU VPS37D (11726825_at) / Fold change /veh VPS37D (11726825_at) / RFU C10orf10 (11716522_x_at) / Fold change /veh C10orf10 (11716522_x_at) / RFU KIR2DL2 /// KIR2DL4 /// KIR2DL5A /// KIR2DL5B /// KIR2DS1 /// KIR2DS2 /// KIR2DS3 /// KIR2DS4 /// KIR3DL3 /// KIR3DL3 /// KIR3DS1 (11738374_at) / Fold change /veh KIR2DL2 /// KIR2DL4 /// KIR2DL5A /// KIR2DL5B /// KIR2DS1 /// KIR2DS2 /// KIR2DS3 /// KIR2DS4 /// KIR3DL3 /// KIR3DL3 /// KIR3DS1 (11738374_at) / RFU C1QL1 (11718748_at) / Fold change /veh C1QL1 (11718748_at) / RFU TMPRSS4 (11747572_a_at) / Fold change /veh TMPRSS4 (11747572_a_at) / RFU HAMP (11756126_x_at) / Fold change /veh HAMP (11756126_x_at) / RFU RNFT2 (11725882_a_at) / Fold change /veh RNFT2 (11725882_a_at) / RFU NR4A2 (11747474_a_at) / Fold change /veh NR4A2 (11747474_a_at) / RFU ABCC12 (11746883_a_at) / Fold change /veh ABCC12 (11746883_a_at) / RFU TMEM136 (11760407_x_at) / Fold change /veh TMEM136 (11760407_x_at) / RFU CLDN22 /// WWC2 (11732394_at) / Fold change /veh CLDN22 /// WWC2 (11732394_at) / RFU HLA-DPB1 (11760878_x_at) / Fold change /veh HLA-DPB1 (11760878_x_at) / RFU SPINT1 (11716480_a_at) / Fold change /veh SPINT1 (11716480_a_at) / RFU GAP43 (11754022_s_at) / Fold change /veh GAP43 (11754022_s_at) / RFU A4GNT (11735810_at) / Fold change /veh A4GNT (11735810_at) / RFU PRB3 (11715151_x_at) / Fold change /veh PRB3 (11715151_x_at) / RFU TUBB4B (11761932_at) / Fold change /veh TUBB4B (11761932_at) / RFU CAPN14 (11732068_a_at) / Fold change /veh CAPN14 (11732068_a_at) / RFU TMCC2 (11721928_a_at) / Fold change /veh TMCC2 (11721928_a_at) / RFU IRGQ (11745062_a_at) / Fold change /veh IRGQ (11745062_a_at) / RFU FAM174B (11720279_a_at) / Fold change /veh FAM174B (11720279_a_at) / RFU TMPRSS4 (11748680_a_at) / Fold change /veh TMPRSS4 (11748680_a_at) / RFU FAM212B (11763350_a_at) / Fold change /veh FAM212B (11763350_a_at) / RFU PLEKHG5 (11743358_a_at) / Fold change /veh PLEKHG5 (11743358_a_at) / RFU ZSCAN30 (11745921_a_at) / Fold change /veh ZSCAN30 (11745921_a_at) / RFU CMKLR1 (11741424_a_at) / Fold change /veh CMKLR1 (11741424_a_at) / RFU LOC101060620 /// MAPK8IP1 (11723275_at) / Fold change /veh LOC101060620 /// MAPK8IP1 (11723275_at) / RFU SPTSSB (11747773_x_at) / Fold change /veh SPTSSB (11747773_x_at) / RFU PRSS12 (11739890_at) / Fold change /veh PRSS12 (11739890_at) / RFU BIN1 (11741810_x_at) / Fold change /veh BIN1 (11741810_x_at) / RFU WNT11 (11732464_a_at) / Fold change /veh WNT11 (11732464_a_at) / RFU C10orf10 (11716521_a_at) / Fold change /veh C10orf10 (11716521_a_at) / RFU C5orf56 (11738089_at) / Fold change /veh C5orf56 (11738089_at) / RFU CYB561 (11721691_x_at) / Fold change /veh CYB561 (11721691_x_at) / RFU ANKRD19P (11752326_a_at) / Fold change /veh ANKRD19P (11752326_a_at) / RFU OR2T12 /// OR2T33 /// OR2T8 (11738714_s_at) / Fold change /veh OR2T12 /// OR2T33 /// OR2T8 (11738714_s_at) / RFU VCAN (11748164_a_at) / Fold change /veh VCAN (11748164_a_at) / RFU JSRP1 (11732532_at) / Fold change /veh JSRP1 (11732532_at) / RFU KRTAP10-11 (11738290_x_at) / Fold change /veh KRTAP10-11 (11738290_x_at) / RFU MYO3A (11730013_a_at) / Fold change /veh MYO3A (11730013_a_at) / RFU EBF3 (11725865_a_at) / Fold change /veh EBF3 (11725865_a_at) / RFU CAMK2N1 (11719241_x_at) / Fold change /veh CAMK2N1 (11719241_x_at) / RFU C5orf56 (11738088_a_at) / Fold change /veh C5orf56 (11738088_a_at) / RFU OLFML3 (11715873_a_at) / Fold change /veh OLFML3 (11715873_a_at) / RFU LOC100653217 /// NTM (11731650_a_at) / Fold change /veh LOC100653217 /// NTM (11731650_a_at) / RFU MAPK11 (11762145_a_at) / Fold change /veh MAPK11 (11762145_a_at) / RFU FIZ1 (11724087_x_at) / Fold change /veh FIZ1 (11724087_x_at) / RFU OASL (11726364_x_at) / Fold change /veh OASL (11726364_x_at) / RFU SOX15 (11748057_x_at) / Fold change /veh SOX15 (11748057_x_at) / RFU CD79A (11719716_a_at) / Fold change /veh CD79A (11719716_a_at) / RFU HIST1H1D (11736915_at) / Fold change /veh HIST1H1D (11736915_at) / RFU CASKIN2 (11723855_a_at) / Fold change /veh CASKIN2 (11723855_a_at) / RFU LOC730098 (11760151_x_at) / Fold change /veh LOC730098 (11760151_x_at) / RFU OR4N2 (11742367_at) / Fold change /veh OR4N2 (11742367_at) / RFU PRRT2 (11749266_a_at) / Fold change /veh PRRT2 (11749266_a_at) / RFU SNX32 (11753110_a_at) / Fold change /veh SNX32 (11753110_a_at) / RFU CDHR5 (11726645_a_at) / Fold change /veh CDHR5 (11726645_a_at) / RFU RCAN1 (11760418_a_at) / Fold change /veh RCAN1 (11760418_a_at) / RFU FAM167A (11723789_a_at) / Fold change /veh FAM167A (11723789_a_at) / RFU FAM26E (11764081_at) / Fold change /veh FAM26E (11764081_at) / RFU ISYNA1 (11749810_s_at) / Fold change /veh ISYNA1 (11749810_s_at) / RFU ACY1 (11761880_at) / Fold change /veh ACY1 (11761880_at) / RFU 11764098_at / Fold change /veh 11764098_at / RFU SAMD14 (11745864_x_at) / Fold change /veh SAMD14 (11745864_x_at) / RFU NPB (11741838_a_at) / Fold change /veh NPB (11741838_a_at) / RFU TMPRSS6 (11731388_a_at) / Fold change /veh TMPRSS6 (11731388_a_at) / RFU KRTAP10-2 (11738614_at) / Fold change /veh KRTAP10-2 (11738614_at) / RFU ARHGAP8 /// PRR5-ARHGAP8 (11727945_x_at) / Fold change /veh ARHGAP8 /// PRR5-ARHGAP8 (11727945_x_at) / RFU KRTAP5-7 /// NADSYN1 (11734609_at) / Fold change /veh KRTAP5-7 /// NADSYN1 (11734609_at) / RFU RASL12 (11751679_a_at) / Fold change /veh RASL12 (11751679_a_at) / RFU CDKN2B (11736163_a_at) / Fold change /veh CDKN2B (11736163_a_at) / RFU PRF1 (11729649_at) / Fold change /veh PRF1 (11729649_at) / RFU, ZNF638 /// ZNF638-IT1 / Fold change vs veh, ZNF638 /// ZNF638-IT1 / RFU, PANK3 / Fold change vs veh, PANK3 / RFU, SH3YL1 / Fold change vs veh, SH3YL1 / RFU, ZEB2 / Fold change vs veh, ZEB2 / RFU, NRIP1 / Fold change vs veh, NRIP1 / RFU, PTTG1IP / Fold change vs veh, PTTG1IP / RFU, CAPN2 / Fold change vs veh, CAPN2 / RFU, MED14 / Fold change vs veh, MED14 / RFU, SNORA58 / Fold change vs veh, SNORA58 / RFU, C1orf63 / Fold change vs veh, C1orf63 / RFU, LRRFIP1 / Fold change vs veh, LRRFIP1 / RFU, NDUFAF7 / Fold change vs veh, NDUFAF7 / RFU, SLC12A2 / Fold change vs veh, SLC12A2 / RFU, IBTK / Fold change vs veh, IBTK / RFU, ESF1 / Fold change vs veh, ESF1 / Fold change vs veh, TMEM50B / RFU, TAOK1 / Fold change vs veh, TAOK1 / RFU, ACBD3 / Fold change vs veh, ACBD3 / RFU, TMA16 / Fold change vs veh, TMA16 / RFU, RWDD3 / Fold change vs veh, RWDD3 / RFU, BCAT1 / Fold change vs veh, BCAT1 / RFU, EDEM3 / Fold change vs veh, EDEM3 / RFU, TMEM33 / Fold change vs veh, TMEM33 / RFU, WDR75 / Fold change vs veh, WDR75 / RFU, AHCTF1 / Fold change vs veh, AHCTF1 / RFU, TFRC / Fold change vs veh, TFRC / RFU, ZDHHC17 / Fold change vs veh, ZDHHC17 / RFU, NOM1 / Fold change vs veh, NOM1 / RFU, ARL8B / Fold change vs veh, ARL8B / RFU, ZBTB11 / Fold change vs veh, ZBTB11 / RFU, TAMM41 / Fold change vs veh, TAMM41 / RFU, KIAA1704 /// LOC100996395 / Fold change vs veh, KIAA1704 /// LOC100996395 / RFU, ING1 / Fold change vs veh, ING1 / RFU, TRMT61B / Fold change vs veh, TRMT61B / RFU, FUBP3 / Fold change vs veh, FUBP3 / RFU, TP53 / Fold change vs veh, TP53 / RFU, TNKS2 / Fold change vs veh, TNKS2 / RFU, ZFP14 / Fold change vs veh, ZFP14 / RFU, ACTR2 / Fold change vs veh, ACTR2 / RFU, PPP3R1 / Fold change vs veh, PPP3R1 / RFU, PIK3R1 / Fold change vs veh, PIK3R1 / RFU, HNRNPA1 / Fold change vs veh, HNRNPA1 / RFU, RNF170 / Fold change vs veh, RNF170 / RFU, ZNF28 / Fold change vs veh, ZNF28 / RFU, RNGTT / Fold change vs veh, RNGTT / RFU, OGT / Fold change vs veh, OGT / RFU, BRD1 / Fold change vs veh, BRD1 / RFU, MARS / Fold change vs veh, MARS / RFU, ZNF655 / Fold change vs veh, ZNF655 / RFU, FAHD1 / Fold change vs veh, FAHD1 / RFU, BDP1 / Fold change vs veh, BDP1 / RFU, LRRCC1 / Fold change vs veh, LRRCC1 / RFU, ARID1A / Fold change vs veh, ARID1A / RFU, ZNF146 / Fold change vs veh, ZNF146 / RFU, ZNF330 / Fold change vs veh, ZNF330 / RFU, GPN3 / Fold change vs veh, GPN3 / RFU, C9orf123 / Fold change vs veh, C9orf123 / RFU, N4BP2L2 / Fold change vs veh, N4BP2L2 / RFU, ARFIP1 / Fold change vs veh, ARFIP1 / RFU, FAM179B / Fold change vs veh, FAM179B / RFU, BCL10 / Fold change vs veh, BCL10 / RFU, UHRF1BP1L / Fold change vs veh, UHRF1BP1L / RFU, BET1 / Fold change vs veh, BET1 / RFU, CNOT2 / Fold change vs veh, CNOT2 / RFU, ZNF268 / Fold change vs veh, ZNF268 / Fold change vs veh, ZNF507 / RFU, DGCR2 / Fold change vs veh, DGCR2 / RFU, WDSUB1 / Fold change vs veh, WDSUB1 / Fold change vs veh, HSP90B1 /// MIR3652 / RFU, ADSS / Fold change vs veh, ADSS / RFU, GK / Fold change vs veh, GK / RFU, ZNF148 / Fold change vs veh, ZNF148 / RFU, TAF9 / Fold change vs veh, TAF9 / RFU, SLC1A5 / Fold change vs veh, SLC1A5 / RFU, SLMO2 / Fold change vs veh, SLMO2 / RFU, ABCC4 / Fold change vs veh, ABCC4 / RFU, LOC101060439 /// RAP1B / Fold change vs veh, LOC101060439 /// RAP1B / RFU, RFX7 / Fold change vs veh, RFX7 / RFU, GTPBP10 / Fold change vs veh, GTPBP10 / RFU, CNEP1R1 / Fold change vs veh, CNEP1R1 / RFU, BIVM-ERCC5 /// ERCC5 / Fold change vs veh, BIVM-ERCC5 /// ERCC5 / RFU, ILF3 / Fold change vs veh, ILF3 / RFU 11762660_at / Fold change /veh 11762660_at / RFU VCAN (11757783_s_at) / Fold change /veh VCAN (11757783_s_at) / RFU DDX43 (11728927_at) / Fold change /veh DDX43 (11728927_at) / RFU KRT8 (11758188_x_at) / Fold change /veh KRT8 (11758188_x_at) / RFU NKD1 (11759106_at) / Fold change /veh NKD1 (11759106_at) / RFU SRD5A1 (11742802_a_at) / Fold change /veh SRD5A1 (11742802_a_at) / RFU TPSAB1 /// TPSB2 (11721975_s_at) / Fold change /veh TPSAB1 /// TPSB2 (11721975_s_at) / RFU GSTM3 (11746129_a_at) / Fold change /veh GSTM3 (11746129_a_at) / RFU IL23R (11737362_x_at) / Fold change /veh IL23R (11737362_x_at) / RFU TMEM51 (11727254_a_at) / Fold change /veh TMEM51 (11727254_a_at) / RFU PIWIL2 (11732686_x_at) / Fold change /veh PIWIL2 (11732686_x_at) / RFU ORM1 (11744905_x_at) / Fold change /veh ORM1 (11744905_x_at) / RFU CCDC152 (11743942_at) / Fold change /veh CCDC152 (11743942_at) / RFU ECM1 (11717891_a_at) / Fold change /veh ECM1 (11717891_a_at) / RFU IL23R (11748794_a_at) / Fold change /veh IL23R (11748794_a_at) / RFU TNFAIP8L3 (11732012_x_at) / Fold change /veh TNFAIP8L3 (11732012_x_at) / RFU MBOAT4 (11741988_at) / Fold change /veh MBOAT4 (11741988_at) / RFU 11764193_at / Fold change /veh 11764193_at / RFU TMEM53 (11763286_at) / Fold change /veh TMEM53 (11763286_at) / RFU MAGEB2 (11727129_at) / Fold change /veh MAGEB2 (11727129_at) / RFU TMEM200A (11744735_a_at) / Fold change /veh TMEM200A (11744735_a_at) / RFU CCDC152 (11751479_a_at) / Fold change /veh CCDC152 (11751479_a_at) / RFU FAM211A (11726209_a_at) / Fold change /veh FAM211A (11726209_a_at) / RFU RGS16 (11746705_a_at) / Fold change /veh RGS16 (11746705_a_at) / RFU VCAN (11755009_s_at) / Fold change /veh VCAN (11755009_s_at) / RFU RHOB (11743442_s_at) / Fold change /veh RHOB (11743442_s_at) / RFU RGS16 (11720943_a_at) / Fold change /veh RGS16 (11720943_a_at) / RFU RGS16 (11720944_at) / Fold change /veh RGS16 (11720944_at) / RFU, VPS4B / Fold change vs veh, VPS4B / RFU, CREB1 / Fold change vs veh, CREB1 / RFU, DNAJC13 / Fold change vs veh, DNAJC13 / RFU, GNAQ / Fold change vs veh, GNAQ / RFU, CDK5R1 / Fold change vs veh, CDK5R1 / RFU, ZRANB3 / Fold change vs veh, ZRANB3 / RFU, CUL4A / Fold change vs veh, CUL4A / RFU, CCNY / Fold change vs veh, CCNY / RFU, UFL1 / Fold change vs veh, UFL1 / RFU, COG3 / Fold change vs veh, COG3 / RFU, DIAPH2 / Fold change vs veh, DIAPH2 / RFU, SKA2 / Fold change vs veh, SKA2 / RFU, AFF3 / Fold change vs veh, AFF3 / RFU, LMF1 / Fold change vs veh, LMF1 / RFU, IPO11 / Fold change vs veh, IPO11 / RFU, DFFB / Fold change vs veh, DFFB / RFU, FOXP1 / Fold change vs veh, FOXP1 / RFU, CARD8 / Fold change vs veh, CARD8 / RFU, STRN3 / Fold change vs veh, STRN3 / RFU, ADK / Fold change vs veh, ADK / RFU, RASSF2 / Fold change vs veh, RASSF2 / RFU, WIPF1 / Fold change vs veh, WIPF1 / RFU, LARP1B / Fold change vs veh, LARP1B / RFU, RASA1 / Fold change vs veh, RASA1 / RFU, RB1 / Fold change vs veh, RB1 / RFU, PPFIA1 / Fold change vs veh, PPFIA1 / RFU, MAT2A / Fold change vs veh, MAT2A / RFU, CCT5 / Fold change vs veh, CCT5 / RFU, WDR92 / Fold change vs veh, WDR92 / RFU, CUX1 / Fold change vs veh, CUX1 / RFU, TTC7A / Fold change vs veh, TTC7A / RFU, TMEM135 / Fold change vs veh, TMEM135 / RFU, DEPTOR / Fold change vs veh, DEPTOR / RFU, CPM / Fold change vs veh, CPM / RFU, DNAJB6 / Fold change vs veh, DNAJB6 / RFU, CACNA2D3 / Fold change vs veh, CACNA2D3 / RFU, DTX4 / Fold change vs veh, DTX4 / RFU, TFCP2 / Fold change vs veh, TFCP2 / RFU, GMCL1 /// GMCL1P1 / Fold change vs veh, GMCL1 /// GMCL1P1 / RFU, AEBP2 / Fold change vs veh, AEBP2 / RFU, SNHG1 /// SNORD22 /// SNORD25 /// SNORD26 /// SNORD27 /// SNORD28 /// SNORD29 /// SNORD31 / Fold change vs veh, SNHG1 /// SNORD22 /// SNORD25 /// SNORD26 /// SNORD27 /// SNORD28 /// SNORD29 /// SNORD31 / Fold change (Aza/veh), C12orf56 (ProbeSet 11735607_a_at) / Fold change (ACY-1035/veh), C12orf56 (ProbeSet 11735607_a_at) / Fold change (Aza/veh), FGFR1OP (ProbeSet 11751329_s_at) / Fold change (ACY-1035/veh), FGFR1OP (ProbeSet 11751329_s_at) / Fold change (Aza/veh), VPS36 (ProbeSet 11739960_a_at) / Fold change (ACY-1035/veh), VPS36 (ProbeSet 11739960_a_at) / RFU SYPL1 (11715823_x_at) / Fold change /veh SYPL1 (11715823_x_at) / RFU IGFBP7 (11715501_s_at) / Fold change /veh IGFBP7 (11715501_s_at) / RFU REEP3 (11722064_at) / Fold change /veh REEP3 (11722064_at) / RFU IGLL1 (11728026_x_at) / Fold change /veh IGLL1 (11728026_x_at): dose or concentration left out as unconfirmed", "settings": "MV-4-11 cells, 48 hours"}
{"compound": "Nc1ccc(-c2cccs2)cc1NC(=O)c1ccc2c(c1)cc(C1CC1)n2CCN1CCOCC1", "note": "[ACY-1035]", "values": [{"measurement": "Fold change /veh MAPK11 (11762145_a_at)", "result": 0.89}]}
